# Results as given in BindingDB's records for doi:10.1021/jm300317k (University of Manchester, 2012).
# Target: Glucose-6-phosphate 1-dehydrogenase (Homo sapiens, UniProt P11413)
# Assay: Inhibition of human recombinant N-terminal His tagged G6PD expressed in Escherichia coli JM109 (DE3) cells assessed as production of NADPH after 30 mins by Amplite fluorimetric assay
# Chain of Glucose-6-phosphate 1-dehydrogenase (P11413 whole entry): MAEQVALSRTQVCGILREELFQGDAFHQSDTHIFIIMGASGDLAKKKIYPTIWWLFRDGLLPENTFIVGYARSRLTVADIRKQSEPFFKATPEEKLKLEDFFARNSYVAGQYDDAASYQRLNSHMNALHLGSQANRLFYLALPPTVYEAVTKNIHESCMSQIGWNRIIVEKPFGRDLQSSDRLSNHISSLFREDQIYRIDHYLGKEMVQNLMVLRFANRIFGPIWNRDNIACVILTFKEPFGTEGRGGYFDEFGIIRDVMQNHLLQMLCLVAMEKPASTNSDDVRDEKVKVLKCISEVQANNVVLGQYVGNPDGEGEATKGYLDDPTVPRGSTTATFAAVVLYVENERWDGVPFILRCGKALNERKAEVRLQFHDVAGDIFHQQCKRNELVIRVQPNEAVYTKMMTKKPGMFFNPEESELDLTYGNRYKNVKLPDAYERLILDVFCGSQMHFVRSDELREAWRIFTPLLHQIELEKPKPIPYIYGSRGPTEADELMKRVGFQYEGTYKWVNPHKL
row,IC50,SMILES
1,> 200 µM,C[C@]12CC[C@H](O)C[C@@H]1CC[C@@H]1[C@@H]2CC[C@]2(C)C(N=O)CC[C@@H]12 (some centres not stated)
2,> 200 µM,CC(N=O)[C@H]1CC[C@H]2[C@@H]3CC[C@H]4C[C@@H](O)CC[C@]4(C)[C@H]3CC[C@]12C (some centres not stated)
